Laboratory results published in US11629171B2, “Beta-hairpin peptidomimetics” (POLYPHOR AG, priority 2017, dated 2023).
Converted amounts (≈) assume the structure as drawn. Where a SMILES comes first, the peptide text is derived from it. Bridges are numbered along the chain shown (N, C = ends). Roman numbers before positions name the chains, in order. [ ]: non-standard residue; d: D form. Tle = CC(C)(C)[C@H](N)C(=O)O; d(hSer) = N[C@H](CCO)C(=O)O; Hiv = CC(C)[C@H](O)C(=O)O; dDab = NCC[C@@H](N)C(=O)O; hSer = N[C@@H](CCO)C(=O)O; Orn = NCCC[C@H](N)C(=O)O; Dab = NCC[C@H](N)C(=O)O; Dap = NC[C@H](N)C(=O)O

What was measured:
Assay type in all cases: cell-based
[1] = tested on: Acinetobacter baumannii 872842; details: 872842
Method: (§1) The in vitro antimicrobial activities of the peptides were determined in 96-well plates (Greiner, polystyrene) by the standard CLSI broth microdilution method (Clinical and Laboratory Standards Institute 2014. Performance standards for antimicrobial susceptibility testing, 24th informational supplement. Approved standard CLSI M100-S24; Clinical and Laboratory Standards Institute, Wayne, Pa.). The following microorganisms were used to determine antibiotic activity of the peptides: Escherichia coli ATCC 25922, Klebsiella pneumoniae SSI #3010^a), Acinetobacter baumannii DSM 30008, Pseudomonas aeruginosa ATCC 27853 and the clinical isolates Escherichia coli 926415^b), Klebsiella pneumoniae 968733^b), Acinetobacter baumannii 872842^b), Enterobacter cloacae 848840^b) and Escherichia coli MCR-1 Af45^c). Before preparation of inocula, Escherichia coli MCR-1 Af45 was subcultured on Mueller-Hinton II (MH-cation adjusted) agar containing 2 μg/mL colistin. ^a) Obtained from Statens Serum Institut (SSI), Copenhagen, Denmark^b) Obtained from International Health Management Associates, Inc. (IHMA Europe Sàrl), Epalinges, Switzerland^c) Obtained from Prof. Patrice Nordmann, University of Fribourg, Fribourg, Switzerland
(§2) Inocula of the microorganisms were diluted into Mueller-Hinton II (MH-cation adjusted) broth and compared with a 0.5 McFarland standard to give appr. 10^6 colony forming units (CFU)/mL. Aliquots (90 μL) of inoculum were added to 10 μL of MH-II broth+P-80 (Polysorbate 80, 0.002% final concentration, v/v) containing the peptide in serial two-fold dilutions. Antimicrobial activities of the peptides were expressed as the minimal inhibitory concentration (MIC) in μg/mL at which no visible growth was observed after 18-20 hours of incubation at 35° C.

[2] = tested on: Acinetobacter baumannii DSM 30008; details: DSM 30008
Method: as §1, §2

[3] = tested on: Enterobacter cloacae 848840; details: 848840
Method: as §1, §2

Escherichia coli 926415 = details: 926415
Method: as §1, §2

[4] = tested on: Escherichia coli ATCC 25922; details: ATCC 25922
Method: as §1, §2

[5] = tested on: Klebsiella pneumoniae 968733; details: 968733
Method: as §1, §2

[6] = tested on: Klebsiella pneumoniae SSI #3010; details: SSI #3010
Method: as §1, §2

[7] = tested on: Pseudomonas aeruginosa ATCC 27853; details: ATCC 27853
Method: as §1, §2

[8] = tested on: human red blood cells (hRBC); assay: Hemolysis; details: red cells of human, 1 h, 200
In short: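 Percent lysis of human red cells was derived from OD540 of the supernatant, referenced to 2% Triton X-100, after a 1 h, 37° C incubation of 20% (v/v) cells with 200 μg/mL peptide.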

Row | SMILES | MIC [1] | MIC [2] | MIC [3] | MIC (Escherichia coli 926415) | MIC [4] | MIC [5] | MIC [6] | MIC [7] | Hemolysis at 200 μg/mL [8]
1 | CC(=O)N[C@H](C(=O)N[C@H]1CCCNC(=O)[C@@H]([C@H](C)O)NC(=O)[C@H](C(C)(C)C)NC(=O)[C@H](CO)NC(=O)[C@H](Cc2c[nH]c3ccccc23)NC(=O)[C@H](CCO)NC(=O)[C@@H](CCN)NC(=O)[C@H](CCC(=O)N[C@@H](CCN)C(=O)N[C@H](C(=O)N[C@@H](CN)C(=O)N[C@H]2CCNC(=O)[C@H]([C@@H](C)O)NC(=O)[C@H](CCN)NC(=O)[C@H](CCN)NC(=O)[C@H](CC(C)C)NC(=O)[C@@H](CC(C)C)NC(=O)[C@H](CCN)NC2=O)[C@@H](C)O)NC(=O)[C@H](CO)NC(=O)[C@H](Cc2ccc(O)cc2)NC1=O)C(C)C [Ex. 18] (I: Ac-V[Orn]YSE[dDab][hSer]WS[Tle][dT] / II: [Dab]T[Dap][Dab][Dab][dL]L[Dab][Dab]T; lactam I:2-I:C, II:4-II:C; amide I:5-II:N) | 0.25 µg/mL (≈ 0.108 µM) | 0.0625 µg/mL (≈ 0.0269 µM) | 0.125 µg/mL (≈ 0.0539 µM) | 0.25 µg/mL (≈ 0.108 µM) | 0.0625 µg/mL (≈ 0.0269 µM) | 0.5 µg/mL (≈ 0.215 µM) | 0.125 µg/mL (≈ 0.0539 µM) | 0.25 µg/mL (≈ 0.108 µM) | 1%
2 | CC(=O)N[C@H](C(=O)N[C@H]1CCCNC(=O)[C@@H]([C@H](C)O)NC(=O)[C@H](C(C)(C)C)NC(=O)[C@H](CO)NC(=O)[C@H](Cc2c[nH]c3ccccc23)NC(=O)[C@H](CO)NC(=O)[C@@H](CCN)NC(=O)[C@H](CCC(=O)N[C@@H](CCN)C(=O)N[C@H](C(=O)N[C@@H](CN)C(=O)N[C@H]2CCNC(=O)[C@H]([C@@H](C)O)NC(=O)[C@H](CCN)NC(=O)[C@H](CCN)NC(=O)[C@H](CC(C)C)NC(=O)[C@@H](CC(C)C)NC(=O)[C@H](CCN)NC2=O)[C@@H](C)O)NC(=O)[C@H](CO)NC(=O)[C@H](Cc2ccc(O)cc2)NC1=O)C(C)C [Ex. 23] (I: Ac-V[Orn]YSE[dDab]SWS[Tle][dT] / II: [Dab]T[Dap][Dab][Dab][dL]L[Dab][Dab]T; lactam I:2-I:C, II:4-II:C; amide I:5-II:N) | 0.25 µg/mL (≈ 0.108 µM) | 0.0625 µg/mL (≈ 0.0271 µM) | 0.125 µg/mL (≈ 0.0542 µM) | 0.5 µg/mL (≈ 0.217 µM) | 0.0625 µg/mL (≈ 0.0271 µM) | 0.5 µg/mL (≈ 0.217 µM) | 0.125 µg/mL (≈ 0.0542 µM) | 0.25 µg/mL (≈ 0.108 µM) | <1%
3 | CC(C)C[C@@H]1NC(=O)[C@@H](CC(C)C)NC(=O)[C@H](CCN)NC(=O)[C@@H](NC(=O)[C@H](CN)NC(=O)[C@@H](NC(=O)[C@H](CCN)NC(=O)CC[C@@H]2NC(=O)[C@H](CO)NC(=O)[C@H](Cc3ccc(O)cc3)NC(=O)[C@@H](NC(=O)[C@@H](O)C(C)C)CCCNC(=O)[C@@H]([C@H](C)O)NC(=O)[C@H](C(C)(C)C)NC(=O)[C@H](CO)NC(=O)[C@H](Cc3c[nH]c4ccccc34)NC(=O)[C@H](CCO)NC(=O)[C@@H](CCN)NC2=O)[C@@H](C)O)CCNC(=O)[C@H]([C@@H](C)O)NC(=O)[C@H](CCN)NC(=O)[C@H](CCN)NC1=O [Ex. 24] (I: H-[Hiv][Orn]YSE[dDab][hSer]WS[Tle][dT] / II: [Dab]T[Dap][Dab][Dab][dL]L[Dab][Dab]T; lactam I:2-I:C, II:4-II:C; amide I:5-II:N) | 1 µg/mL (≈ 0.439 µM) | 0.125 µg/mL (≈ 0.0548 µM) | 0.25 µg/mL (≈ 0.11 µM) | 2 µg/mL (≈ 0.877 µM) | 0.125 µg/mL (≈ 0.0548 µM) | 0.5 µg/mL (≈ 0.219 µM) | 0.125 µg/mL (≈ 0.0548 µM) | 0.25 µg/mL (≈ 0.11 µM) | <1%
4 | CC(=O)N[C@H](C(=O)N[C@H]1CCCNC(=O)[C@@H]([C@H](C)O)NC(=O)[C@H](C(C)(C)C)NC(=O)[C@H](CO)NC(=O)[C@H](Cc2c[nH]c3ccccc23)NC(=O)[C@H](CCN)NC(=O)[C@@H](CCN)NC(=O)[C@H](CCC(=O)N[C@@H](CCN)C(=O)N[C@H](C(=O)N[C@@H](CN)C(=O)N[C@H]2CCNC(=O)[C@H]([C@@H](C)O)NC(=O)[C@H](CCN)NC(=O)[C@H](CCN)NC(=O)[C@H](CC(C)C)NC(=O)[C@@H](CC(C)C)NC(=O)[C@H](CCN)NC2=O)[C@@H](C)O)NC(=O)[C@H](CO)NC(=O)[C@H](Cc2ccc(O)cc2)NC1=O)C(C)C [Ex. 25] (I: Ac-V[Orn]YSE[dDab][Dab]WS[Tle][dT] / II: [Dab]T[Dap][Dab][Dab][dL]L[Dab][Dab]T; lactam I:2-I:C, II:4-II:C; amide I:5-II:N) | 0.25 µg/mL (≈ 0.108 µM) | 0.0625 µg/mL (≈ 0.0269 µM) | 0.125 µg/mL (≈ 0.0539 µM) | 0.25 µg/mL (≈ 0.108 µM) | 0.0625 µg/mL (≈ 0.0269 µM) | 0.25 µg/mL (≈ 0.108 µM) | 0.125 µg/mL (≈ 0.0539 µM) | 0.25 µg/mL (≈ 0.108 µM) | <1%

Continued, in another order:

Row | MIC [1] | MIC [2] | MIC [3] | MIC (Escherichia coli 926415) | MIC [4] | MIC [5] | MIC [6] | MIC [7] | SMILES | Hemolysis at 200 μg/mL [8]
5 | 0.5 µg/mL (≈ 0.213 µM) | 0.125 µg/mL (≈ 0.0532 µM) | 0.25 µg/mL (≈ 0.106 µM) | 1 µg/mL (≈ 0.426 µM) | 0.125 µg/mL (≈ 0.0532 µM) | 2 µg/mL (≈ 0.852 µM) | 0.125 µg/mL (≈ 0.0532 µM) | 0.25 µg/mL (≈ 0.106 µM) | CC(=O)N[C@H](C(=O)N[C@H]1CCCNC(=O)[C@@H](CCC(N)=O)NC(=O)[C@H](C(C)(C)C)NC(=O)[C@H](CO)NC(=O)[C@H](Cc2c[nH]c3ccccc23)NC(=O)[C@H](CCO)NC(=O)[C@@H](CCN)NC(=O)[C@H](CCC(=O)N[C@@H](CCN)C(=O)N[C@H](C(=O)N[C@@H](CN)C(=O)N[C@H]2CCNC(=O)[C@H]([C@@H](C)O)NC(=O)[C@H](CCN)NC(=O)[C@H](CCN)NC(=O)[C@H](CC(C)C)NC(=O)[C@@H](CC(C)C)NC(=O)[C@H](CCN)NC2=O)[C@@H](C)O)NC(=O)[C@H](CO)NC(=O)[C@H](Cc2ccc(O)cc2)NC1=O)C(C)C [Ex. 20] (I: Ac-V[Orn]YSE[dDab][hSer]WS[Tle][dQ] / II: [Dab]T[Dap][Dab][Dab][dL]L[Dab][Dab]T; lactam I:2-I:C, II:4-II:C; amide I:5-II:N) | <1%
6 | 2 µg/mL (≈ 0.852 µM) | 0.5 µg/mL (≈ 0.213 µM) | 0.5 µg/mL (≈ 0.213 µM) | 8 µg/mL (≈ 3.41 µM) | 0.25 µg/mL (≈ 0.106 µM) | 8 µg/mL (≈ 3.41 µM) | 0.5 µg/mL (≈ 0.213 µM) | 0.5 µg/mL (≈ 0.213 µM) | CC(=O)N[C@H](C(=O)N[C@H]1CCCNC(=O)[C@@H](CCC(=O)O)NC(=O)[C@H](C(C)(C)C)NC(=O)[C@H](CO)NC(=O)[C@H](Cc2c[nH]c3ccccc23)NC(=O)[C@H](CCO)NC(=O)[C@@H](CCN)NC(=O)[C@H](CCC(=O)N[C@@H](CCN)C(=O)N[C@H](C(=O)N[C@@H](CN)C(=O)N[C@H]2CCNC(=O)[C@H]([C@@H](C)O)NC(=O)[C@H](CCN)NC(=O)[C@H](CCN)NC(=O)[C@H](CC(C)C)NC(=O)[C@@H](CC(C)C)NC(=O)[C@H](CCN)NC2=O)[C@@H](C)O)NC(=O)[C@H](CO)NC(=O)[C@H](Cc2ccc(O)cc2)NC1=O)C(C)C [Ex. 21] (I: Ac-V[Orn]YSE[dDab][hSer]WS[Tle][dE] / II: [Dab]T[Dap][Dab][Dab][dL]L[Dab][Dab]T; lactam I:2-I:C, II:4-II:C; amide I:5-II:N) | <1%
7 | 0.25 µg/mL (≈ 0.108 µM) | 0.0625 µg/mL (≈ 0.0269 µM) | 0.125 µg/mL (≈ 0.0539 µM) | 0.5 µg/mL (≈ 0.215 µM) | 0.0625 µg/mL (≈ 0.0269 µM) | 1 µg/mL (≈ 0.431 µM) | 0.125 µg/mL (≈ 0.0539 µM) | 0.5 µg/mL (≈ 0.215 µM) | CC(=O)N[C@H](C(=O)N[C@H]1CCCNC(=O)[C@@H](CCO)NC(=O)[C@H](C(C)(C)C)NC(=O)[C@H](CO)NC(=O)[C@H](Cc2c[nH]c3ccccc23)NC(=O)[C@H](CCO)NC(=O)[C@@H](CCN)NC(=O)[C@H](CCC(=O)N[C@@H](CCN)C(=O)N[C@H](C(=O)N[C@@H](CN)C(=O)N[C@H]2CCNC(=O)[C@H]([C@@H](C)O)NC(=O)[C@H](CCN)NC(=O)[C@H](CCN)NC(=O)[C@H](CC(C)C)NC(=O)[C@@H](CC(C)C)NC(=O)[C@H](CCN)NC2=O)[C@@H](C)O)NC(=O)[C@H](CO)NC(=O)[C@H](Cc2ccc(O)cc2)NC1=O)C(C)C [Ex. 22] (I: Ac-V[Orn]YSE[dDab][hSer]WS[Tle][d(hSer)] / II: [Dab]T[Dap][Dab][Dab][dL]L[Dab][Dab]T; lactam I:2-I:C, II:4-II:C; amide I:5-II:N) | <1%
